The text below walks through data of ChEMBL document CHEMBL2203035, “Synthesis and docking studies of novel antitumor benzimidazoles” (Bioorg Med Chem, 2012).

Usually Ki stands for a dissociation constant, usually derived from enzyme kinetics or from competition with a known ligand.

The target in one test is Urokinase plasminogen activator surface receptor (Homo sapiens, UniProt Q03405). Description: Binding affinity to uPAR.
Sequence of Urokinase plasminogen activator surface receptor (Q03405 whole entry): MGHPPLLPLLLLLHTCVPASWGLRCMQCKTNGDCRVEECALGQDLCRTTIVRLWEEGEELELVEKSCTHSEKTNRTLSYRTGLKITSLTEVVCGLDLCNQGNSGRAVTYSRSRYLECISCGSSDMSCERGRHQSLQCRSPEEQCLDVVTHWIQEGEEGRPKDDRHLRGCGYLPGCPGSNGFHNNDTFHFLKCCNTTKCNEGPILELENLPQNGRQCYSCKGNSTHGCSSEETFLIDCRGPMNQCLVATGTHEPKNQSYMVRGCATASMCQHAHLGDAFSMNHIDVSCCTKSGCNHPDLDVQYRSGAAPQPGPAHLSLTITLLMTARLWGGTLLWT
Conditions: not given
Molecule `N#CC(C#N)CC(=O)c1ccccc1` returned an inhibition constant Ki of 0.296 nM.

In the case of `Nc1c(-c2nc3ccccc3[nH]2)cc(-c2ccccc2)n1-c1ccc(Cl)cc1`, the affinity corresponds to a Ki of 0.00445 nM.

In a further test the test system is Raji. The test is described as follows: Inhibition of tumor promotion in human Raji cells assessed as TPA-induced Epstein-Barr virus early antigen activation at 10 mol ratio/TPA after 48 hrs by indirect immunofluorescence analysis relative to TPA alone. It counts as functional. Also noted: scale not given: the % may be the effect or the level left.
Conditions: not given
Regarding `CC1(C)CC[C@]2(C(=O)O)CC[C@]3(C)C(=CC[C@@H]4[C@@]5(C)CC[C@H](O)C(C)(C)[C@@H]5CC[C@]43C)[C@@H]2C1` [OLEANOLIC_ACID], the Activity worked out at 100%.

For the molecule `Nc1c(-c2nc3ccccc3[nH]2)cc(-c2ccccc2)n1-c1ccc(Cl)cc1`, the Activity is 100%.

Another test has as its system Raji. The test is described as follows: Inhibition of tumor promotion in human Raji cells assessed as TPA-induced Epstein-Barr virus early antigen activation at 100 mol ratio/TPA after 48 hrs by indirect immunofluorescence analysis relative to TPA alone. The test is classed as functional. Also noted: scale not given: the % may be the effect or the level left.
Conditions: not given
Consider `CC1(C)CC[C@]2(C(=O)O)CC[C@]3(C)C(=CC[C@@H]4[C@@]5(C)CC[C@H](O)C(C)(C)[C@@H]5CC[C@]43C)[C@@H]2C1` [OLEANOLIC_ACID], for which the Activity is 80%.

Consider `Nc1c(-c2nc3ccccc3[nH]2)cc(-c2ccccc2)n1-c1ccc(Cl)cc1`, for which the Activity turned out to be 85.6%.

The subject of another test is Raji. The test is described as follows: Inhibition of tumor promotion in human Raji cells assessed as TPA-induced Epstein-Barr virus early antigen activation at 500 mol ratio/TPA after 48 hrs by indirect immunofluorescence analysis relative to TPA alone. It counts as functional. Also on record: scale not given: the % may be the effect or the level left.
Conditions: not given
Consider `CC1(C)CC[C@]2(C(=O)O)CC[C@]3(C)C(=CC[C@@H]4[C@@]5(C)CC[C@H](O)C(C)(C)[C@@H]5CC[C@]43C)[C@@H]2C1` [OLEANOLIC_ACID], for which the Activity is recorded as 30%.

As to `Nc1c(-c2nc3ccccc3[nH]2)cc(-c2ccccc2)n1-c1ccc(Cl)cc1`, the Activity was determined as 50.3%.

Another test deals with Raji. The test is described as follows: Inhibition of tumor promotion in human Raji cells assessed as TPA-induced Epstein-Barr virus early antigen activation at 1000 mol ratio/TPA after 48 hrs by indirect immunofluorescence analysis relative to TPA alone. It counts as functional. Also on record: scale not given: the % may be the effect or the level left.
Conditions: not given
For the molecule `CC1(C)CC[C@]2(C(=O)O)CC[C@]3(C)C(=CC[C@@H]4[C@@]5(C)CC[C@H](O)C(C)(C)[C@@H]5CC[C@]43C)[C@@H]2C1` [OLEANOLIC_ACID], the Activity was determined as 12.7%.

Turning to `Nc1c(-c2nc3ccccc3[nH]2)cc(-c2ccccc2)n1-c1ccc(Cl)cc1`, the Activity stood at 20.1%.

For another test, the system named is A549. The test is described as follows: Cytotoxicity against human A549 cells after 72 hrs by alamar blue assay. The conditions noted are these: A549, 72 h. It counts as functional, cell-based. For orientation: Resazurin is reduced to fluorescent resorufin, in cell work by metabolically active cells.
Molecule `N#CC(C#N)CC(=O)c1ccccc1` came in with an IC50 of 9.7 µM.

On to `Nc1c(-c2nc3ccccc3[nH]2)cc(-c2ccccc2)n1-c1ccc(Cl)cc1`, for which the IC50 worked out at 9.9 µM.

The next test relates to MCF7. The test is described as follows: Downregulation of uPA protein expression in human MCF7 cell extract at 0.60 uM after 48 hrs by ELISA (reference value: 1 1.4000 +/- 1.40 ng/ml). The test is classed as functional.
Conditions: not given
(In general: In an ELISA, binding on a coated surface is turned into a signal by an enzyme label.)
`COc1cccc2c1C(=O)c1c(O)c3c(c(O)c1C2=O)C[C@@](O)(C(=O)CO)C[C@@H]3O[C@H]1C[C@H](N)[C@H](O)[C@H](C)O1` [DOXORUBICIN] yielded an Activity of 2.75 ng/mL.

A further test relates to MCF7. The test is described as follows: Downregulation of uPA protein expression in human MCF7 cell extract at 0.30 uM after 48 hrs by ELISA (reference value: 1 1.4000 +/- 1.40 ng/ml). It counts as functional.
Conditions: not given
`COc1cccc2c1C(=O)c1c(O)c3c(c(O)c1C2=O)C[C@@](O)(C(=O)CO)C[C@@H]3O[C@H]1C[C@H](N)[C@H](O)[C@H](C)O1` [DOXORUBICIN] had an Activity of 3 ng/mL.

The subject of another test is MCF7. The test is described as follows: Downregulation of uPA protein expression in human MCF7 cell extract at 0.15 uM after 48 hrs by ELISA (reference value: 1 1.4000 +/- 1.40 ng/ml). The test is classed as functional.
Conditions: not given
Molecule `COc1cccc2c1C(=O)c1c(O)c3c(c(O)c1C2=O)C[C@@](O)(C(=O)CO)C[C@@H]3O[C@H]1C[C@H](N)[C@H](O)[C@H](C)O1` [DOXORUBICIN] gave an Activity of 3.2 ng/mL.

In the next test the test system is MCF7. The test is described as follows: Downregulation of uPA protein expression in human MCF7 cell extract at 0.075 uM after 48 hrs by ELISA (reference value: 1 1.4000 +/- 1.40 ng/ml). It counts as functional.
Conditions: not given
On to `COc1cccc2c1C(=O)c1c(O)c3c(c(O)c1C2=O)C[C@@](O)(C(=O)CO)C[C@@H]3O[C@H]1C[C@H](N)[C@H](O)[C@H](C)O1` [DOXORUBICIN], for which the Activity was 3.4 ng/mL.

A further test concerns A549. The test is described as follows: Downregulation of uPA protein expression in human A549 cell extract at 0.40 uM after 48 hrs by ELISA (reference value: 11.0000 +/-1.60 ng/ml). It counts as functional.
Conditions: not given
`CO[C@@]12[C@H](COC(N)=O)C3=C(C(=O)C(C)=C(N)C3=O)N1C[C@@H]1N[C@@H]12` [MITOMYCIN] displayed an Activity of 2.4 ng/mL.

Another test relates to A549. Description: Downregulation of uPA protein expression in human A549 cell extract at 0.20 uM after 48 hrs by ELISA (reference value: 11.0000 +/-1.60 ng/ml). The test is classed as functional.
Conditions: not given
Regarding `CO[C@@]12[C@H](COC(N)=O)C3=C(C(=O)C(C)=C(N)C3=O)N1C[C@@H]1N[C@@H]12` [MITOMYCIN], the Activity was 2.6 ng/mL.

The next test has as its system A549. The test is described as follows: Downregulation of uPA protein expression in human A549 cell extract at 0.10 uM after 48 hrs by ELISA (reference value: 11.0000 +/-1.60 ng/ml). It counts as functional.
Conditions: not given
With `CO[C@@]12[C@H](COC(N)=O)C3=C(C(=O)C(C)=C(N)C3=O)N1C[C@@H]1N[C@@H]12` [MITOMYCIN], the Activity was 3.3 ng/mL.

Another test deals with A549. Description: Downregulation of uPA protein expression in human A549 cell extract at 0.05 uM after 48 hrs by ELISA (reference value: 11.0000 +/-1.60 ng/ml).
Conditions: not given
It counts as functional.
Consider `CO[C@@]12[C@H](COC(N)=O)C3=C(C(=O)C(C)=C(N)C3=O)N1C[C@@H]1N[C@@H]12` [MITOMYCIN], for which the Activity was determined as 4.3 ng/mL.

For the next test, the system named is MCF7. The test is described as follows: cells. The settings on record: Homo sapiens, MCF7, 48 h.
Description: Cytotoxicity against human MCF7 cells after 48 hrs by sulforhodamine B assay
For the molecule `CC/C(=C(\c1ccccc1)c1ccc(OCCN(C)C)cc1)c1ccccc1` [TAMOXIFEN], the IC50 was 1.82 µg/well.

Consider `Nc1c(-c2nc3ccccc3[nH]2)cc(-c2ccccc2)n1-c1ccc(Cl)cc1`, for which the IC50 stood at 0.934 µg/well.
